Measured values: patent US20250326771A1, “PIPERAZINE DERIVATIVES USEFUL IN HIV THERAPY” (VIIV HEALTHCARE COMPANY, priority 2022, published 2025)

Experiments:
[1] = test system: Jurkat HIV-luciferase clones; assay: Jurkat latency reversal assay; format: cell-based; details: Homo sapiens, 48 h; Jurkat latency reversal assay potency; read-out: Jurkat pEC50 (converted)
Summary of the method: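 Compounds are titrated 3-fold over 14 points from 10 μM in duplicate at 0.5% DMSO. Clones C16, 115 and N6, grown with 500 nM EFV, are co-incubated for 48 h at 37° C. Virally driven luciferase is read by luminescence, and EC50 and maximal percent activation versus vehicle come from a four-parameter model.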

cIAP1-BIR3 = cIAP1-BIR3 (Homo sapiens (Human), UniProt Q13490); assay: BIR binding assay (FRET competition), cIAP1 BIR3; details: for cIAP1 BIR3 vs BIR2 separation window: fold separation (FS) for cIAP1
cIAP1-BIR3, sequence (Q13490 253-363): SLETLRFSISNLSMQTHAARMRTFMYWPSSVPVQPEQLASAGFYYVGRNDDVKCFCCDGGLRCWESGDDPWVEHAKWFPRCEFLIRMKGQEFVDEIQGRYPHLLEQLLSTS
Summary of the method: (§1)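 Each domain is run separately at its own level: 50 nM cIAP1-BIR3, 100 nM XIAP-BIR3, 325 nM for cIAP1-BIR2 or cIAP2-BIR2. Probe is a 200 nM fluorescent SMAC peptide, and the value is IC50 from FRET competition.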

cIAP1-BIR2 = cIAP1-BIR2 (Homo sapiens (Human), UniProt Q13490); assay: BIR binding assay (FRET competition), cIAP1 BIR2
cIAP1-BIR2, sequence (Q13490 173-257): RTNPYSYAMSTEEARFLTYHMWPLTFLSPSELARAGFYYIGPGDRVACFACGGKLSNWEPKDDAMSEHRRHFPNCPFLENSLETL
Summary of the method: as §1

cIAP2-BIR3 = cIAP2-BIR3 (Homo sapiens (Human), UniProt Q13489); assay: BIR binding assay (FRET competition), cIAP2 BIR3; details: for cIAP2 BIR3 vs BIR2 separation window: fold separation (FS) for cIAP2
cIAP2-BIR3, sequence (Q13489 238-349): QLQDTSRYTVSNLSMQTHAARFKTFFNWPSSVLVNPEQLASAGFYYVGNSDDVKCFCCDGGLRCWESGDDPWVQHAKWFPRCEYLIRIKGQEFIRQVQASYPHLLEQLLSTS

cIAP2-BIR2 = cIAP2-BIR2 (Homo sapiens (Human), UniProt Q13489); assay: BIR binding assay (FRET competition), cIAP2 BIR2
cIAP2-BIR2, sequence (Q13489 158-242): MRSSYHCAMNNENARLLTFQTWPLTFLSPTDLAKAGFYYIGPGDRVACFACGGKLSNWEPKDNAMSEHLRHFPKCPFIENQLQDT
Summary of the method: as §1

XIAP-BIR3 = XIAP-BIR3 (Homo sapiens (Human), UniProt P98170); assay: BIR binding assay (FRET competition), XIAP BIR3; details: for XIAP BIR3 vs BIR2 separation window: fold separation (FS) for XIAP
XIAP-BIR3, sequence (P98170 241-356): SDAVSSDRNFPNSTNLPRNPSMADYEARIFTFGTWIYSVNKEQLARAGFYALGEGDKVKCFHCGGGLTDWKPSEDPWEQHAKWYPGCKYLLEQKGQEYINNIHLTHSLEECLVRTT
Summary of the method: as §1

XIAP-BIR2 = XIAP-BIR2 (Homo sapiens (Human), UniProt P98170); assay: BIR binding assay (FRET competition), XIAP BIR2; details: FRET competition binding; read-out: XIAP BIR2 (pIC50) (converted)
XIAP-BIR2, sequence (P98170 124-240): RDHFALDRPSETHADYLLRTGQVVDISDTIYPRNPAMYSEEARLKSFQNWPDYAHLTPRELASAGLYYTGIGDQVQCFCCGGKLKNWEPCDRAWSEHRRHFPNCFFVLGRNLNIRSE
Summary of the method: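 Compounds in a 15-point, 3-fold series competed with an AlexaFluor647 SMAC peptide (AVPIAQKSE, 200 nM) for 200 nM His-tagged XIAP-BIR2 over 60 min in pH 7.4 HEPES/CHAPS/DTT buffer. Eu-W1024 (2 nM) was then added for 30 min. IC50 and pIC50 were derived from the 615 nm/665 nm emission ratio by variable-slope fit.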

| Structure (SMILES) | EC50 [1] | IC50 (cIAP1-BIR3) | cIAP1 BIR3 vs BIR2 separation window (cIAP1-BIR3) | IC50 (cIAP1-BIR2) | IC50 (cIAP2-BIR3) | cIAP2 BIR3 vs BIR2 separation window (cIAP2-BIR3) | IC50 (cIAP2-BIR2) | IC50 (XIAP-BIR3) | XIAP BIR3 vs BIR2 separation window (XIAP-BIR3) | IC50 (XIAP-BIR2) |
| --- | --- | --- | --- | --- | --- | --- | --- | --- | --- | --- |
| C[C@@H]1CN(CC(=O)N2CC(C)(C)c3[nH]c(=O)c(Cc4ccc(F)cc4)cc32)[C@@H](CN2CCC(CN(C)C(=O)Cc3cccc(C(=O)N(C)CC4CCN(C[C@H]5CN[C@H](C)CN5CC(=O)N5CC(C)(C)c6[nH]c(=O)c(Cc7ccc(F)cc7)cc65)CC4)c3)CC2)CN1 [Example 98, N-((1-(((2R,5R)-1-(2-(6-(4-fluorobenzyl)-3,3-dimethyl-5-oxo-2,3,4,5-tetrahydro-1H-pyrrolo[3,2-b]pyridin-1-yl)-2-oxoethyl)-5-methylpiperazin-2-yl)methyl)piperidin-4-yl)methyl)-3-(2-(((1-(((2R,5R)-1-(2-(6-(4-fluorobenzyl)-3,3-dimethyl-5-oxo-2,3,4,5-tetrahydro-1H-pyrrolo[3,2-b]pyridin-1-yl)-2-oxoethyl)-5-methylpiperazin-2-yl)methyl)piperidin-4-yl)methyl)(methyl)amino)-2-oxoethyl)-N-methylbenzamide] | 63.1 to 316 nM | 1.38 to 7.94 nM | +++ (10,000>FS>1,000) | 1000 to 3160 nM | 1.38 to 7.94 nM | +++ (10,000>FS>1,000) | 10000 to 51300 nM | 7.94 to 15.8 nM | ++++ (FS>10,000) | 10000 to 51300 nM |
| C[C@@H]1CN(CC(=O)N2CC(C)(C)c3[nH]c(=O)c(Cc4ccc(F)cc4)cc32)[C@@H](CN2CCC(CCNC(=O)c3ccc(C(=O)NCCC4CCN(C[C@H]5CN[C@H](C)CN5CC(=O)N5CC(C)(C)c6[nH]c(=O)c(Cc7ccc(F)cc7)cc65)CC4)cc3)CC2)CN1 [Example 103, N^1,N^4-bis(2-(1-(((2R,5R)-1-(2-(6-(4-fluorobenzyl)-3,3-dimethyl-5-oxo-2,3,4,5-tetrahydro-1H-pyrrolo[3,2-b]pyridin-1-yl)-2-oxoethyl)-5-methylpiperazin-2-yl)methyl)piperidin-4-yl)ethyl)terephthalamide] | 63.1 to 316 nM | 7.94 to 15.8 nM | +++ (10,000>FS>1,000) | 3160 to 10000 nM | 7.94 to 15.8 nM | +++ (10,000>FS>1,000) | 3160 to 10000 nM | 7.94 to 15.8 nM | ++++ (FS>10,000) | 10000 to 51300 nM |
| C[C@@H]1CN(CC(=O)N2CC(C)(C)c3c2cc(Cc2ccc(F)cc2)c(=O)n3C)[C@@H](CN2CCO[C@H](COCc3ccc(COC[C@@H]4CN(C[C@H]5CN[C@H](C)CN5CC(=O)N5CC(C)(C)c6c5cc(Cc5ccc(F)cc5)c(=O)n6C)CCO4)cc3)C2)CN1 [Example 117, 1,1′-(2,2′-((3R,3′R,6R,6′R)-(((2S,2'S)-(((1,4-phenylenebis(methylene))bis(oxy))bis(methylene))bis(morpholine-2,4-diyl))bis(methylene))bis(3-methylpiperazine-6,1-diyl))bis(acetyl))bis(6-(4-fluorobenzyl)-3,3,4-trimethyl-1,2,3,4-tetrahydro-5H-pyrrolo[3,2-b]pyridin-5-one)] | 63.1 to 316 nM | 15.8 to 31.6 nM | +++ (10,000>FS>1,000) | 3160 to 10000 nM | 15.8 to 31.6 nM | +++ (10,000>FS>1,000) | 3160 to 10000 nM | 31.6 to 501 nM | ++++ (FS>10,000) | 10000 to 51300 nM |
